The values that follow come from PubChem BioAssay (NCI).

Among the test systems are DMS 114 small cell lung; KM20L2 colon; LXFL 529 NSCLC; M19-MEL melanoma; RXF-631 renal; MDA-MB-435; MDA-N; NCI/ADR-RES ovarian; P388 leukemia; SN12K1 renal; T-47D breast.
Common to all, as to test: NCI tumour cell line growth inhibition, 48 h

Molecules are shown by their SMILES. Where “and” joins values, the source holds several entries; their conditions need not be identical. Equal entries are not always repeated.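 Briefly, cells in 96-well plates were exposed to five compound concentrations for 48 h, and endpoints were estimated by linear interpolation. Here, GI50 denotes the concentration required for 50% inhibition of growth. Definition used: TGI = concentration required for complete inhibition of growth.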

As to `COC(=O)C1=CCS(=O)(=O)C1`, the TGI in the assay with DMS 114 small cell lung, with KM20L2 colon, in the assay with LXFL 529 NSCLC, in the assay on M19-MEL melanoma and in the assay on RXF-631 renal was more than 100 µM each time.

Turning to `NC1=C(O)/C(=N/NS(=O)(=O)c2ccccc2)C(c2cccc(Cl)c2)O1` (configuration not stated), the TGI with DMS 114 small cell lung is 42.1 µM; in the assay with KM20L2 colon, more than 85.6 µM; in the assay with LXFL 529 NSCLC it was 35.8 µM; in the assay on M19-MEL melanoma, more than 57.2 µM; in the assay with MDA-MB-435, more than 100 µM; with MDA-N it was 37.9 µM.

As to `O=C1OC(/C=C/c2ccccc2)C(=O)C1=O` (configuration not stated), the TGI in the assay with KM20L2 colon, with LXFL 529 NSCLC and with M19-MEL melanoma was more than 100 µM each time.

Regarding `O=c1c2ccc(Br)cc2nc(-c2ccccc2)n1NC1OC(CO)C(O)C(O)C1O` (configuration not stated), the TGI in the assay with DMS 114 small cell lung, in the assay with KM20L2 colon, in the assay with LXFL 529 NSCLC and with M19-MEL melanoma was more than 100 µM each time.

Consider `O=C(NCCOCCO)c1ccc(O)cc1`, for which the TGI with DMS 114 small cell lung, in the assay on KM20L2 colon, in the assay with LXFL 529 NSCLC and with M19-MEL melanoma was more than 100 µM each time.

With `COc1cc(C2C(C(=O)Nc3ccccc3C)=C(C)NC(C)=C2C(=O)Nc2ccccc2C)ccc1O`, the TGI in the assay on DMS 114 small cell lung, in the assay with KM20L2 colon, in the assay on LXFL 529 NSCLC, in the assay with M19-MEL melanoma and in the assay on RXF-631 renal was more than 100 µM throughout.

For `Cn1c(=O)c2nc3sc4ccccc4c(=N)n3c2n(C)c1=O`, the TGI with DMS 114 small cell lung, with LXFL 529 NSCLC, in the assay on M19-MEL melanoma and with RXF-631 renal was more than 100 µM throughout.

For `O=C1OC(=O)C2C1C1(c3ccccc3)OC2(c2ccccc2)c2c(Br)c(Br)c(Br)c(Br)c21` (configuration not stated), the TGI in the assay on DMS 114 small cell lung, in the assay on KM20L2 colon, in the assay on LXFL 529 NSCLC and in the assay with M19-MEL melanoma was more than 100 µM in each case.

Take `C=C1[C@@H]2CCC(C)(C)[C@H]1CCC(=O)[C@@H]2C(=O)OC`: the TGI with DMS 114 small cell lung, in the assay with KM20L2 colon, with LXFL 529 NSCLC, in the assay with M19-MEL melanoma and in the assay on RXF-631 renal was more than 100 µM each time.

With `Cc1ccc(Sc2cc([N+](=O)[O-])cc(Sc3ccc(C)cc3)c2Sc2ccc(C)cc2)cc1`, the TGI in the assay with DMS 114 small cell lung, in the assay with KM20L2 colon, in the assay with LXFL 529 NSCLC and in the assay on M19-MEL melanoma was more than 100 µM each time.

As for `CC(=O)NC1C(OCc2ccccc2)OC(COC(=O)CCCCCCCCCCNC(=O)CCNc2ccc([N+](=O)[O-])c3[nH]c4ccc(O)cc4c(=O)c23)C(O)C1OC(C)C(=O)N[C@H](C(=O)N[C@H](CCC(=O)O)C(N)=O)C(C)C` (some centres not stated), the TGI with DMS 114 small cell lung, in the assay with KM20L2 colon, in the assay with LXFL 529 NSCLC, in the assay with M19-MEL melanoma and with RXF-631 renal was more than 100 µM each time.

As for `CC12CCC(C)(c3cc(O)c(O)cc31)c1cc(O)c(O)cc12`, the TGI in the assay with DMS 114 small cell lung is 31.1 µM; with KM20L2 colon it was 39.2 µM; with LXFL 529 NSCLC it was 22.2 µM; in the assay on M19-MEL melanoma, 31.6 µM; in the assay on RXF-631 renal it was 55.6 µM.

Take `CCCCCCCCCCCCCCCc1nc(SCC(=O)O)n[nH]1`: the results for the TGI with LXFL 529 NSCLC and in the assay on RXF-631 renal were 66.4 µM and more than 100 µM, respectively.

With `CCN(CC)[C@@H]1c2cc3c(cc2C(c2cc(OC)c(O)c(OC)c2)C2C(=O)CO[C@@H]21)OCO3` (some centres not stated), the TGI with DMS 114 small cell lung, in the assay on KM20L2 colon, in the assay with LXFL 529 NSCLC, with M19-MEL melanoma and in the assay with RXF-631 renal was more than 100 µM each time.

`N[C@@H](Cc1ccc(N(CCCl)CCCl)cc1)C(=O)O`: the GI50 is 13 µM in the assay with DMS 114 small cell lung; 14 µM in the assay with KM20L2 colon; 15.9 µM in the assay with M19-MEL melanoma; 63.4 µM in the assay with MDA-MB-435; 30.6 µM and 32 µM with NCI/ADR-RES ovarian; 1790 nM with P388 leukemia. The GI50 in the assay with SN12K1 renal was 11.8 µM; in the assay on T-47D breast, 34.3 µM. The TGI in the assay with DMS 114 small cell lung was 29.1 µM and 86.4 µM; in the assay on KM20L2 colon, > 31.6 µM and 193 µM; with LXFL 529 NSCLC, 110 µM; in the assay with M19-MEL melanoma, 45.3 µM and 102 µM; with MDA-MB-435, > 100 µM and 105 µM; in the assay on MDA-N it was 126 µM. Further, the TGI in the assay on NCI/ADR-RES ovarian is > 100 µM and 146 µM; in the assay with P388 leukemia, 35.9 µM and 42.9 µM; with SN12K1 renal, 60.5 µM and 102 µM; in the assay with T-47D breast, > 100 µM and 116 µM.

Turning to `CC1(C)OC(=O)C(c2ccsc2)C(=O)O1`, the TGI in the assay on DMS 114 small cell lung, with KM20L2 colon, in the assay on LXFL 529 NSCLC, in the assay on M19-MEL melanoma and with RXF-631 renal was more than 100 µM throughout.

As to `O=c1cc(/C=C/c2ccccc2)c2ccc(O/C(=C\c3ccccc3)c3nc4ccccc4c(=O)o3)cc2o1`, the TGI is 71.7 µM in the assay with DMS 114 small cell lung; more than 100 µM with KM20L2 colon; 63.9 µM in the assay on LXFL 529 NSCLC; 91 µM in the assay on M19-MEL melanoma; more than 100 µM in the assay on RXF-631 renal.

As for `OCC1C2C=CC(O2)[C@H]1CO` (some centres not stated), the TGI in the assay with DMS 114 small cell lung, in the assay with KM20L2 colon, in the assay with LXFL 529 NSCLC, in the assay with M19-MEL melanoma and in the assay with RXF-631 renal was more than 100 µM throughout.

`O=C1CCC(=O)C12CCc1ccccc12`: the TGI with DMS 114 small cell lung, in the assay on KM20L2 colon, with LXFL 529 NSCLC, in the assay on M19-MEL melanoma and in the assay with RXF-631 renal was more than 100 µM each time.

For the molecule `COc1nc(C(Cl)(Cl)Cl)c(Cl)c(OC)c1Cl`, the results for the GI50 in the assay with DMS 114 small cell lung, with KM20L2 colon and in the assay on M19-MEL melanoma were 19.7 µM, 21 µM and 25.3 µM, respectively. Besides, the TGI in the assay with DMS 114 small cell lung was 45.9 µM and 61.6 µM; in the assay on KM20L2 colon, 55.7 µM and 85.2 µM; in the assay with M19-MEL melanoma, 58.5 µM and 67 µM; with MDA-MB-435, 79.7 µM; with MDA-N it was 57.5 µM; in the assay with NCI/ADR-RES ovarian, 58.4 µM. The TGI was determined as 43 µM in the assay on P388 leukemia, 49.4 µM in the assay with RXF-631 renal, 62.4 µM with SN12K1 renal and 77.6 µM in the assay with T-47D breast.

For the molecule `COc1ccc(/C=C\c2cc(OC)c(OC(C)=O)c(OC)c2)cc1`, the TGI was 61.7 µM in the assay with DMS 114 small cell lung; more than 100 µM with KM20L2 colon; more than 100 µM with LXFL 529 NSCLC; more than 100 µM in the assay with M19-MEL melanoma; more than 100 µM in the assay with RXF-631 renal.

Consider `CSc1nnc2n1-c1ccccc1SCC2`, for which the TGI with DMS 114 small cell lung, with KM20L2 colon, with LXFL 529 NSCLC and with M19-MEL melanoma was more than 100 µM each time.

`OC1/C(=C/c2ccccc2)CNC/C1=C\c1ccccc1` (configuration not stated): the TGI with DMS 114 small cell lung, in the assay with KM20L2 colon, in the assay on LXFL 529 NSCLC and in the assay on M19-MEL melanoma was more than 100 µM throughout.

As to `Fc1cccc(C2SCc3nc4ccccc4n32)c1` (configuration not stated), the TGI with DMS 114 small cell lung, in the assay on LXFL 529 NSCLC, in the assay on M19-MEL melanoma and in the assay on RXF-631 renal was more than 100 µM throughout.

`C[C@]12CC[C@H](O)CC1CCC[C@@H]2O` (some centres not stated): the TGI in the assay with DMS 114 small cell lung, with LXFL 529 NSCLC and with RXF-631 renal was more than 100 µM in each case.

Regarding `CCn1cc(C(=O)O)c(=O)c2cc(F)c(N3CCNCC3)nc21`, the TGI in the assay with DMS 114 small cell lung, in the assay with LXFL 529 NSCLC, in the assay with M19-MEL melanoma and in the assay with RXF-631 renal was more than 100 µM each time.

Take `O=CN/C=C\c1cc(O)ccc1O`: the TGI in the assay with DMS 114 small cell lung is 52.3 µM; with KM20L2 colon it was more than 62.4 µM; with LXFL 529 NSCLC it was 22.8 µM; in the assay on M19-MEL melanoma, 40.2 µM.

For `Cn1c(=O)ccc2cc(C(=O)c3ccccc3)ccc21`, the TGI was 81.1 µM in the assay with DMS 114 small cell lung; more than 100 µM with KM20L2 colon; more than 100 µM in the assay with LXFL 529 NSCLC; more than 100 µM in the assay with M19-MEL melanoma; more than 100 µM with RXF-631 renal.

On to `CN=C(NC#N)NCc1ccccc1`, for which the TGI in the assay with DMS 114 small cell lung, in the assay with KM20L2 colon, in the assay on LXFL 529 NSCLC and in the assay on M19-MEL melanoma was more than 100 µM each time.

Consider `NCCCSCC(=O)O`, for which the TGI in the assay on DMS 114 small cell lung, in the assay on KM20L2 colon, in the assay with LXFL 529 NSCLC and with M19-MEL melanoma was more than 100 µM each time.

With `CCC1(O)CC(c2ccccc2)N(C)C(c2ccccc2)C1` (configuration not stated), the TGI with DMS 114 small cell lung, in the assay on KM20L2 colon, with LXFL 529 NSCLC, in the assay on M19-MEL melanoma and in the assay on RXF-631 renal was more than 100 µM each time.

Regarding `O=C(c1ccccc1)C(c1ccccc1)C1(O)C(=O)Nc2ccc(Br)cc21` (configuration not stated), the TGI is 50.5 µM in the assay on DMS 114 small cell lung; more than 100 µM with KM20L2 colon; 53.1 µM in the assay with LXFL 529 NSCLC; 30.6 µM in the assay on M19-MEL melanoma; more than 100 µM in the assay on RXF-631 renal.

Consider `CCOC(=O)/C(C#N)=C/c1[nH]c(C)c(C)c1C`, for which the TGI in the assay with DMS 114 small cell lung, in the assay with KM20L2 colon, in the assay on LXFL 529 NSCLC and in the assay with M19-MEL melanoma was more than 100 µM in each case.

Turning to `O=C1C2Cc3ccccc3CN2C(=O)N1CCN1CCOCC1` (configuration not stated), the TGI in the assay on DMS 114 small cell lung, in the assay with KM20L2 colon, with LXFL 529 NSCLC, in the assay on M19-MEL melanoma and in the assay with RXF-631 renal was more than 100 µM each time.
